By Kd is commonly meant the concentration at which binding is half-saturated. Higher therefore signals lower affinity.

Each structure is given as a SMILES string.

Drawing on publication PMC9452769 (Molecular Plant Pathology, 2022), this text covers Kd for one molecule.

For the assay, the target named is T1, OxyR (OxyR-His) (Xanthomonas campestris, UniProt Q8PCA2).
T1 sequence (Q8PCA2 1-313): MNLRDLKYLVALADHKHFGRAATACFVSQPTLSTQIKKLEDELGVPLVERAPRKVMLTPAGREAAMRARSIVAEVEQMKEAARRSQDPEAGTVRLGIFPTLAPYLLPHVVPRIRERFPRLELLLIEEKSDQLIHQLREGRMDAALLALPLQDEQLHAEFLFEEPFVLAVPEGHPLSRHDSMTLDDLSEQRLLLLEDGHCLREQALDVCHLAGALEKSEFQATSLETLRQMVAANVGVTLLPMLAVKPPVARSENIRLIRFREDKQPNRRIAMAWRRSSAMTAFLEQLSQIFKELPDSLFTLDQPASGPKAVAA
Kind of assay: microscale thermophoresis. The class given is binding.

In turn, `C[S@@+]([O-])CCCCN=C=S` [sulforaphane] yielded a Kd of 325 ± 105 nM.
